Data: US20130040882A1, “USE OF FIBROBLAST GROWTH FACTOR FRAGMENTS” (NOVARTIS AG, priority 2003, published 2013)
Where “and” joins values, the source holds several entries; their conditions need not be identical. Equal values may be shown once.

Key:
[1] = Salmon calcitonin/PTS893 monkey study: urinalysis; conditions: urine; for NTx/Crea: test concentration or dose not given here; for Pyr/Crea: test concentration or dose not given here
[2] = Salmon calcitonin/PTS893 monkey study: in vivo examinations (mortality, food consumption, clinical observations, body weight); set-up: species or system cynomolgus monkeys (Macaca fascicularis); conditions: males
Protocol: Solvent was used as vehicle for the control group.
The animals used in this analysis were cynomolgus monkeys (Macaca fascicularis), supplied by Centre de Recherches Primatologiques, Port Louis, Mauritius. Two animals were used per group and sex. […] Animals were examined daily for mortality, food consumption and clinical observations. Body weight was recorded once per week.
In vivo examinations. No significant histopathological changes were observed.

[3] = female monkeys, day 13 of dosing
[4] = female monkeys, day −7 relative to start of dosing
[5] = female monkeys, day −8 relative to start of dosing
[6] = male monkeys, day −5 relative to start of dosing
[7] = male monkeys, day −6 relative to start of dosing

Substance: Leu8, Asp10, Lysll, A1a16, G1n18, Thr33, A1a34 human PTH 1-34 [PTS893, Leu8, Asp10, Lysll, A1a16, G1n18, Thr33, A1a34 human PTH 1-34 [hPTH(1-34)]]
- CREAT [1, 3]: 5620 µmol/L and 8060 µmol/L
- Ca2+ [1, 3]: 20.05 mmol/L and 12.35 mmol/L
- Cl− [1, 3]: 101 mmol/L and 133 mmol/L
- D-PYR [1, 3]: 1356 nmol/L and 2036 nmol/L
- LDH [1, 3]: 10.0 IU/L and 9.0 IU/L
- Mg2+ [1, 3]: 6.90 mmol/L and 5.90 mmol/L
- NTx/Crea [1, 3]: 447 nME/mM and 705 nME/mM
- Pyr/Crea [1, 3]: 241 nM/mM and 253 nM/mM
- VOLUME [1, 3]: 52 mL and 42 mL
- NTx/Crea [1, 4]: 576 nME/mM and 634 nME/mM
- Pyr/Crea [1, 4]: 163 nM/mM and 181 nM/mM
- CREAT [1, 5]: 19160 µmol/L and 14060 µmol/L
- Ca2+ [1, 5]: 11.50 mmol/L and 6.60 mmol/L
- K+ [1, 5]: 302 mmol/L and 164 mmol/L
- LDH [1, 5]: 11.0 IU/L and 18.0 IU/L
- Mg2+ [1, 5]: 7.35 mmol/L and 4.00 mmol/L
- Na+ [1, 5]: 145 mmol/L and 118 mmol/L
- Ca2+ ([1]; male monkeys, day 13 of dosing): 7.55 mmol/L and 13.10 mmol/L
- I.PHOS ([1]; male monkeys, day 13 of dosing): 0.10 mmol/L and 0.17 mmol/L
- K+ ([1]; male monkeys, day 13 of dosing): 107 mmol/L and 69 mmol/L
- LDH ([1]; male monkeys, day 13 of dosing): 14.0 IU/L and 19.0 IU/L
- Mg2+ ([1]; male monkeys, day 13 of dosing): 8.70 mmol/L and 5.25 mmol/L
- NAG ([1]; male monkeys, day 13 of dosing): 2.9 IU/l and 2.6 IU/l
- NTx/Crea ([1]; male monkeys, day 13 of dosing): 621 nME/mM and 547 nME/mM
- Pyr/Crea ([1]; male monkeys, day 13 of dosing): 214 nM/mM and 204 nM/mM
- CREAT [1, 6]: 16160 µmol/L and 16120 µmol/L
- CTx [1, 6]: 11865 µg/L and 20108 µg/L
- D-PYR [1, 6]: 1660 nmol/L and 2278 nmol/L
- NTx [1, 6]: 5403 nM BCE and 8757 nM BCE
- NTx/Crea [1, 6]: 334 nME/mM and 543 nME/mM
- Pyr/Crea [1, 6]: 103 nM/mM and 141 nM/mM
- CREAT [1, 7]: 16160 µmol/L and 9940 µmol/L
- Ca2+ [1, 7]: 5.10 mmol/L and 3.50 mmol/L
- K+ [1, 7]: 86 mmol/L and 125 mmol/L
- LDH [1, 7]: 7.0 IU/L and 9.0 IU/L
- Food Consumption, Avg., Both animals ([2]; average of both animals of the group): 89.6
- Food Consumption, Avg. ([2]; average per individual animal): 87.5 and 91.7
- Food Consumption, Day 1 ([2]; day 1 of SC dosing, individual animals): 100
- Food Consumption, Day 2 ([2]; day 2 of SC dosing, individual animals): 100
- Food Consumption, Day 3 ([2]; day 3 of SC dosing, individual animals): 100
- Food Consumption, Day 4 ([2]; day 4 of SC dosing, individual animals): 100
- Food Consumption, Day 5 ([2]; day 5 of SC dosing, individual animals): 100
- Food Consumption, Day 6 ([2]; day 6 of SC dosing, individual animals): 100
- Food Consumption, Day 7 ([2]; day 7 of SC dosing, individual animals): 100
- Food Consumption, Day 8 ([2]; day 8 of SC dosing, individual animals): 100
- Food Consumption, Day 9 ([2]; day 9 of SC dosing, individual animals): 100
- Food Consumption, Day 10 ([2]; day 10 of SC dosing, individual animals): 100
- Food Consumption, Day 11 ([2]; day 11 of SC dosing, individual animals): 100
- Food Consumption, Day 12 ([2]; day 12 of SC dosing, individual animals): 100
- Food Consumption, Day 13 ([2]; day 13 of SC dosing, individual animals): 50 and 100
- Food Consumption, Day 14 ([2]; day 14 of SC dosing, individual animals): 75 and 100
- Food Consumption, Day −1 ([2]; day −1 (before dosing), individual animals): 100
- Food Consumption, Day −2 ([2]; day −2 (before dosing), individual animals): 75 and 100
- Food Consumption, Day −3 ([2]; day −3 (before dosing), individual animals): 100
- Food Consumption, Day −4 ([2]; day −4 (before dosing), individual animals): 100
- Food Consumption, Day −5 ([2]; day −5 (before dosing), individual animals): 100
- Food Consumption, Day −6 ([2]; day −6 (before dosing), individual animals): 50
